Results published in publication PMC11187217, “Anti-adhesive, anti-biofilm and fungicidal action of newly synthesized gemini quaternary ammonium salts” (Scientific Reports, 2024).
Where two headings read alike, the source gives them in different places. Marks after values point to notes of the source that are not given here.

Tests used:
[1] = tested on: Salmonella Typhimurium TA100; details: for Number of colonies: ± SD
Protocol: (§1) The mutagenic potential of the tested gemini QAS was determined using the Ames test[83] using Salmonella Typhimurium TA98 and Salmonella Typhimurium TA100 with defects in histidine biosynthesis. The culture of S. Typhimurium TA98 and S. Typhimurium TA100 was incubated with shaking at 37 °C for 18 h, centrifuged (3000 rpm, 5 min) and OD = 1.5 was determined, at a wavelength of λ = 590 nm. The agar was dissolved and cooled to 42 °C. […] The media were incubated for 48 h at 37 °C. The positive control for the S. Typhimurium TA98 strain was acriflavin (100 μg/ml), and for the S. Typhimurium TA100 strain, sodium azide (15 μg/ml). The negative control was the culture without tested compound and with NaCl (0,9%). After incubation, the colonies were counted and the mutagenicity index (MR) was determined—the ratio of the number of revertants resulting from the mutagenic effect of the tested compound to the number of spontaneous revertants. Experiment was performed in three repetitions.

[2] = tested on: Salmonella Typhimurium TA98; assay: Mutagenicity, Ames test; details: for Number of colonies: ± SD
Protocol: as §1

Candida albicans 595/20 = assay: MIC/MFC, microdilution method (modified CLSI M27); assay type: cell-based; details: C. albicans 595/20 (clinical isolate), 28 °C; for MIC / MFC: Candida albicans; for MIC: 595/20, 24 h, read-out: Minimum inhibitory concentration (MIC); for MIC / Minimum inhibitory concentration (MIC): 90% growth inhibition, YPG; for MFC / Minimum fungicidal concentration (MFC*): no growth on solid YPG; for MFC / Minimum inhibitory concentration (MIC) / Minimum fungicidal concentration (MFC*): 24 h; for MFC: read-out: Minimum fungicidal concentration (MFC*)
Protocol: (§2) Minimum inhibitory concentration (MIC) and minimum fungicidal concentration (MFC) values were determined based on the modified CLSI M27 protocol. The study was performed using the microdilution method on sterile 96-well titration plates. The S. cerevisiae Σ1278b ATCC 42800, S. cerevisiae BY4741 ATCC 201388, C. albicans ATCC 10231, C. albicans 595/20 and R. mucilaginosa ATCC 4056 were incubated for 18 h at 28 °C (without shaking), then centrifuged (1000 rcf, 5 min), and the obtained pellet was suspended in fresh YPG medium and optical density (OD) = 0.25–0.3 was determined at a wavelength (λ) of 590 nm. Next, 10 μl of selected compounds at appropriate final concentrations (5–1280 μM) were spotted into the wells of the titration plate. Then, 80 μl of YPG medium and 10 μl of culture with a fixed OD were added. All tests were performed in triplicate. The plate was incubated at 28 °C for 24 h. The YPG medium was a negative control, while the prepared culture not treated with compounds was a positive control. […] The minimum inhibitory concentration was determined at 90% growth inhibition.
(§3) In order to determine the MFC of selected gemini surfactants, 10 μl of culture was transferred to solid YPG medium from the wells of the titration plate in which MIC was observed and from wells with the compound with higher concentrations. The spotted suspensions were incubated at 28 °C for 24 h. After incubation, inhibition of the growth of microorganisms was observed.

[3] = tested on: Candida albicans ATCC 10231; assay: MIC/MFC, microdilution method (modified CLSI M27); assay type: cell-based; details: 28 °C; for MIC / MFC: Candida albicans, ATCC10231, 24 h; for MIC: C. albicans ATCC 10231, 90% growth inhibition, read-out: Minimum inhibitory concentration (MIC); for MIC / Minimum inhibitory concentration (MIC): YPG; for MFC: C. albicans ATCC 10231, no growth on solid YPG, read-out: Minimum fungicidal concentration (MFC*); for Minimum inhibitory concentration (MIC) / Minimum fungicidal concentration (MFC*): C. albicans ATCC 10231, 24 h; for Minimum inhibitory concentration (MIC): 90% growth inhibition; for Minimum fungicidal concentration (MFC*): no growth on solid YPG
Protocol: as §2, §3

[4] = tested on: Saccharomyces cerevisiae Σ1278b ATCC 42800; assay: MIC/MFC, microdilution method (modified CLSI M27); assay type: cell-based; details: S. cerevisiae Σ1278b, 28 °C; for MIC / Minimum inhibitory concentration (MIC): 90% growth inhibition, YPG; for MIC: read-out: Minimum inhibitory concentration (MIC); for MFC / Minimum fungicidal concentration (MFC*): no growth on solid YPG; for MFC: read-out: Minimum fungicidal concentration (MFC*)
Protocol: as §2, §3

C. albicans ATCC 10231 [5] = assay: Adhesion of C. albicans to silicone surface; assay type: cell-based, Candida albicans
Protocol: (§4) The effect of gemini QAS on the adhesion of C. albicans ATCC 10231 was determined using a modification of the method of Obłąk et al.. […] After incubation, the culture was centrifuged (1000 rcf, 5 min), and the resulting pellet was suspended in PBS (pH 7.4) until OD = 0.8 (λ = 590 nm). • In the case of testing the polystyrene surface, 100 µl of tested gemini QAS at concentrations of 20–1280 µM was added to the wells of a 96-well titration plate, incubated for 2 h at 37 °C, rinsed with sterile distilled water, and then spotted with 100 µl of the obtained culture and incubated at 37 °C for 4 h. After this time, the culture was removed, the plates were rinsed with sterile distilled water and placed in an oven (60 °C, 20 min). Then, crystal violet (0.1%) was added to the wells of the titration plate, stained for 5 min and rinsed with sterile distilled water until all traces of violet were removed from the rinsed water. Then the washing mixture (1% SDS, 50 mmol HCl, 100% isopropanol) was added. The absorbance of the samples was read using a spectrophotometer (BioTek 800 TS Absorbance Reader) at λ = 590 nm. The positive control was the culture wells to which the tested gemini QAS were not added, and the negative control was the medium. The experiment was performed in 3 repetitions. • When the tested surface was stainless steel (round washers Ø 0.4 cm), silicone (0.5 cm long fragments of Foley catheters) or glass (1 cm^2 coverslips), the tested materials were incubated for 2 h at 37 °C with shaking (100 rpm) in the presence of the tested gemini QAS at concentrations of 80–640 µM. Then, the materials were rinsed with sterile distilled water, transferred to tubes with culture and incubated for 4 h at 37 °C with shaking (100 rpm). After incubation, the materials were rinsed with sterile distilled water. […] Next, the washing mixture (1% SDS, 50 mmol HCl, 100% isopropanol) was added and the absorbance of the samples was read using a spectrophotometer (BioTek 800 TS Absorbance Reader) at λ = 590 nm. […] After this time, the colonies growing on the plates were counted. […]

C. albicans ATCC 10231 [6] = assay: Adhesion of C. albicans to stainless steel surface; assay type: cell-based, Candida albicans; details: concentration not stated (tested 80–640 µM)
Protocol: as §4

[7] = Saccharomyces cerevisiae, ATCC42800, 24 h
[8] = concentration not stated (tested 80–640 µM)

| Structure (SMILES) | Mutagenicity ratio (MR) ([1]; TA100, ¼ MIC) | Number of colonies ([1]; TA100, ¼ MIC) | Mutagenicity ratio (MR) ([1]; TA100, ½ MIC) | Number of colonies ([1]; TA100, ½ MIC) | Mutagenicity ratio (MR) ([2]; TA98, ¼ MIC) | Number of colonies ([2]; TA98, ¼ MIC) | Mutagenicity ratio (MR) ([2]; TA98, ½ MIC) | Number of colonies ([2]; TA98, ½ MIC) | MIC (Candida albicans 595/20) [µM] | MFC (Candida albicans 595/20) [µM] | MIC [3] [µM] | MFC [3] [µM] | MIC [4, 7] [µM] | MFC [4, 7] [µM] | Reduction of adhesion of C. albicans cells to silicone (C. albicans ATCC 10231 [5]; [8]) | Inhibition of adhesion of C. albicans to stainless steel (C. albicans ATCC 10231 [6]) | Minimum inhibitory concentration (MIC) (Candida albicans 595/20) | Minimum fungicidal concentration (MFC*) (Candida albicans 595/20) | Minimum inhibitory concentration (MIC) [3] | Minimum fungicidal concentration (MFC*) [3] | other results |
| --- | --- | --- | --- | --- | --- | --- | --- | --- | --- | --- | --- | --- | --- | --- | --- | --- | --- | --- | --- | --- | --- |
| CCCCCCCCCCCCCC(=O)N(CCCN(CCC[N+](C)(C)C)C(=O)CCCCCCCCCCCCC)CCC[N+](C)(C)C [2xC14BrG3] | 0.99 | 199.0 ± 1.41 | 0.98 | 197.0 ± 0.71 | 1.08 | 29.7 ± 2.08 | 1.75 | 48.0 ± 2.83 | 640 | > 1280 | 640 | 1280 | 360 | 640 |  |  |  |  |  |  |  |
| CCCCCCCCCCCCCCCC(=O)N(CCCN(CCC[N+](C)(C)C)C(=O)CCCCCCCCCCCCCCC)CCC[N+](C)(C)C [2xC16MeCO3G3, dimethyl{{3-[N-(3-{N-[3-(dimethylammonium)propyl]hexadecylamido}propyl}hexadecylamido}propyl}}ammonium dimethylcarbonate] | 1.43 | 398.0 ± 2.83 | 1.76 | 490.5 ± 3.54 | 1.55 | 35.3 ± 5.03 | 1.85 | 42.0 ± 2.16 |  |  |  |  |  |  | 80–90% | approximately 50% | > 1280 > 1280* µM | > 1280 > 1280* µM | > 1280 > 1280* µM | > 1280 > 1280* µM | Minimum inhibitory concentration (MIC) ([4]; 24 h): > 1280 > 1280* µM; Minimum fungicidal concentration (MFC*) ([4]; 24 h): > 1280 > 1280* µM |
| CCCCCCCCCCCC(=O)N(CCCN(CCC[N+](C)(C)C)C(=O)CCCCCCCCCCC)CCC[N+](C)(C)C [2xC12BrG3] | 0.95 | 265.0 ± 7.07 | 1.23 | 308.3 ± 6.87 | 0.82 | 18.7 ± 2.31 | 7.67 | 174.5 ± 9.19 | 1280 | > 1280 | 640 | 640 |  |  |  |  |  |  |  |  | MIC ([4]; 24 h): 240 µM; MFC ([4]; 24 h): 320 µM |
| CCCCCCCCCCCCCCCC(=O)N(CCCN(CCC[N+](C)(C)C)C(=O)CCCCCCCCCCCCCCC)CCC[N+](C)(C)C [2xC16LaG3] | 0.99 | 197.7 ± 1.53 | 1.06 | 213.0 ± 4.24 | 1.12 | 30.7 ± 1.15 | 1.35 | 37.0 ± 3.46 |  |  |  |  |  |  |  |  | > 1280 > 1280* µM | > 1280 > 1280* µM | > 1280 > 1280* µM | > 1280 > 1280* µM | Reduction of adhesion of C. albicans cells to silicone (C. albicans ATCC 10231 [5]; 640 µM): completely reduced the adhesion; Minimum inhibitory concentration (MIC) ([4]; 24 h): > 1280 > 1280* µM; Minimum fungicidal concentration (MFC*) ([4]; 24 h): > 1280 > 1280* µM |
| CCCCCCCCCCCCCCCC(=O)N(CCCN(CCC[N+](C)(C)C)C(=O)CCCCCCCCCCCCCCC)CCC[N+](C)(C)C [2xC16BrG3] |  | 380.0 ± 1.37 | 1.50 |  | 1.51 | 34.3 ± 5.69 | 1.85 | 42.0 ± 5.57 | > 1280 | > 1280 | > 1280 | > 1280 | > 1280 | > 1280 |  | approximately 60% |  |  |  |  |  |
| CCCCCCCCCCCC(=O)N(CCCN(CCC[N+](C)(C)C)C(=O)CCCCCCCCCCC)CCC[N+](C)(C)C [2xC12MeCO3G3, dimethyl{{3-[N-(3-{N-[3-(dimethylammonium)propyl]dodecylamido}propyl}dodecylamido}propyl}}ammonium dimethylcarbonate] | 0.87 | 243.0 ± 8.49 | 1.57 | 438.0 ± 2.83 | 1.57 | 35.8 ± 2.63 | 2.59 | 59.0 ± 2.65 |  |  |  |  |  |  | 80–90% | approximately 60% | > 1280 > 1280* µM | > 1280 > 1280* µM | > 1280 > 1280* µM | > 1280 > 1280* µM | MIC ([4]; 24 h): 640 µM; MFC ([4]; 24 h): > 1280 µM |
